The target in this experiment is T1, RORγ (Homo sapiens, UniProt P51449).
T1 construct: Gal4 (galactose-responsive transcription factor); expressed in transfected cells; host or cells: HEK293
T1 sequence (P51449 269-508 limits assumed): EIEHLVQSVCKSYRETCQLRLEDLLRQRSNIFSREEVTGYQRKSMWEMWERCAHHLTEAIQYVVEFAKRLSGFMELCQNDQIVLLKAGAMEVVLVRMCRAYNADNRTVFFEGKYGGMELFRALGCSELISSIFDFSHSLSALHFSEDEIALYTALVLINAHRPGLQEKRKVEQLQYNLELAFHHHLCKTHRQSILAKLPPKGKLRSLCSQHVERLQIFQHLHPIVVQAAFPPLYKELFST
Briefly: RORγ Reporter Assay (Gal4). It is filed as cell-based. How it is done: RORγ Reporter Assay (Gal4)
The HEK293 cell line is co-transfected transiently with two plasmids, one with the RORγ ligand-binding domain fused to galactose-responsive transcription factor (Gal4), and the other with the luciferase reporter gene and Gal binding sites (UAS). This construction allows to determine the RORγ activity in a cellular system through the measurement of luminescence.
A suspension of RORγ reporter cells was dispensed into plates and cultured 2 h at 37° C. and 5% CO2. Media formulation consisted in DMEM/F-12 medium (Gibco) supplemented with 10% heat inactivated FBS (Sigma-Aldrich), non-essential aminoacids (Sigma-Aldrich), 2 mM Glutamax (Gibco) and 100 U/mF penicillin (Sigma-Aldrich). Dose-response curves with compounds were prepared in 100% DMSO and further diluted […] in culture medium. Compound solutions were added to the plate containing cells (final DMSO concentration of 0.1%) and incubated for 24 h at 37° C. and 5% CO2. Luciferase detection reagent was added to each well, and relative light units […] were quantified from each assay well using a plate reading luminometer.
Values of average RFU±S.D. were computed for all treatment sets, followed by the calculations of percent-reduction of RORγ activity in response to respective test compound. The following formula was used: activity=100*[1−[x test compound/average vehicle]where the theoretical minimum reduction (0% reduction).
(In general: In a reporter assay the amount or activity of a reporter protein is the signal.)

The mark [1] stands for this setting: HEK293 co-transfected with RORγ LBD-Gal4 and luciferase reporter, 24 h incubation, absolute IC50, read-out: IC50.
The mark [2] stands for this setting: comparison compounds from WO2016020295, Tables 5 and 6, read-out: Gal4 assay IC50.

Like-named read-outs stand apart in the source and are kept apart here.

One may read the IC50 as the concentration that inhibits the measured activity by half. For `NC(=O)CN1CC[C@H](CNc2ncnc(N3CC(F)(F)C[C@@H]3c3ccc(C(F)(F)F)cn3)c2F)[C@@H](F)C1` (single isomer, unassigned) [Example H6-18-2, 2-((3R*,4R*)-4-(((6-((R)-4,4-difluoro-2-(5-(trifluoromethyl)pyridin-2-yl)pyrrolidin-1-yl)-5-fluoropyrimidin-4-yl)amino)methyl)-3-fluoropiperidin-1-yl)acetamide], under setting [1], the IC50 amounted to 0.06 µM.
The same measure, in the same setting: in the case of `NC(=O)CN1CCC(CNc2ncnc(N3CCC3c3ccc(C(F)(F)F)cc3)c2F)CC1` (stereo not shown) [Example H6-28, 2-(4-(((5-fluoro-6-(2-(4-(trifluoromethyl)phenyl)azetidin-1-yl)pyrimidin-4-yl)amino)methyl)piperidin-1-yl)acetamide] it was 0.3 µM; in that of `NC(=O)CN1CCC(CNc2ncnc(N3CC(F)(F)C[C@@H]3c3ccc(C(F)(F)F)cc3)c2F)C(F)(F)C1` (single isomer, unassigned) [Example H6-15-2, 2-((R*)-4-(((6-((R)-4,4-difluoro-2-(4-(trifluoromethyl)phenyl)pyrrolidin-1-yl)-5-fluoropyrimidin-4-yl)amino)methyl)-3,3-difluoropiperidin-1-yl)acetamide], 0.025 µM.
Still for that read-out and setting: in the case of `C[C@@H]1COC[C@H](c2cccc(C(F)(F)F)c2)N1c1ncnc(NC[C@@H]2CCN(CC(N)=O)C[C@H]2O)c1F` (single isomer, unassigned) [Example H6-21-3] it was 0.086 µM; in that of `NC(=O)CN1CC[C@H](CNc2ncnc(N3CCOC[C@@H]3c3ccc(C(F)(F)F)cn3)c2F)[C@H](F)C1` (single isomer, unassigned) [Example H6-12-1, 2-((3R*,4S*)-3-fluoro-4-(((5-fluoro-6-((S)-3-(5-(trifluoromethyl)pyridin-2-yl)morpholino)pyrimidin-4-yl)amino)methyl)piperidin-1-yl)acetamide], 0.55 µM; in that of `NC(=O)CN1CC[C@H](CNc2ncnc(N3CC(F)(F)C[C@@H]3c3ccc(C(F)(F)F)cc3)c2F)[C@@H](O)C1` (single isomer, unassigned) [Example H6-17-2, 2-((3R*,4R*)-4-(((6-((R)-4,4-difluoro-2-(4-(trifluoromethyl)phenyl)pyrrolidin-1-yl)-5-fluoropyrimidin-4-yl)amino)methyl)-3-hydroxypiperidin-1-yl)acetamide], 0.031 µM.
As to `NC(=O)CN1CCC(F)(CNc2ncnc(N3CCOC[C@@H]3c3ccc(OC(F)(F)F)cc3)c2F)CC1` [Example H6-6, (S)-2-(4-fluoro-4-(((5-fluoro-6-(3-(4-(trifluoromethoxy)phenyl)morpholino)pyrimidin-4-yl)amino)methyl)piperidin-1-yl)acetamide], the IC50 under setting [1] was 0.051 µM.
Same read-out and setting: in the case of `CC(C)(C(N)=O)N1CCC(CNc2ncnc(N3CCOC[C@@H]3c3ccc(C(F)(F)F)cn3)c2F)CC1` [Example H6-3, (S)-2-(4-(((5-fluoro-6-(3-(5-(trifluoromethyl)pyridin-2-yl)morpholino)pyrimidin-4-yl)amino)methyl)piperidin-1-yl)-2-methylpropanamide] it was 0.28 µM; in that of `NC(=O)CN1CCC(F)(CNc2ncnc(N3CCOC[C@@H]3c3ccc(C(F)(F)F)cn3)c2F)CC1` [Example H6-8, (S)-2-(4-fluoro-4-(((5-fluoro-6-(3-(5-(trifluoromethyl)pyridin-2-yl)morpholino)pyrimidin-4-yl)amino)methyl)piperidin-1-yl)acetamide], 0.16 µM; in that of `NC(=O)CN1CC[C@H](CNc2ncnc(N3CCOC[C@@H]3c3ccc(C(F)(F)F)cc3)c2F)[C@@H](F)C1` (single isomer, unassigned) [Example H6-10-1, 2-((3R*,4R*)-3-fluoro-4-(((5-fluoro-6-((S)-3-(4-(trifluoromethyl)phenyl)morpholino)pyrimidin-4-yl)amino)methyl)piperidin-1-yl)acetamide], 0.039 µM.
On to `NC(=O)Cc1ccc(CNc2ncnc(N3CCOC[C@@H]3c3ccc(OC(F)(F)F)cc3)c2F)cc1` [Example 230, reference compound], for which the IC50 under setting [2] is < 0.1 µM.
Regarding `CC(C(N)=O)N1CCC(CNc2ncnc(N3CCOC[C@@H]3c3ccc(C(F)(F)F)cn3)c2F)CC1` (stereo partly shown) [Example H6-1], the IC50 under setting [1] stood at 0.91 µM.
On the same count and under the same terms, in the case of `NC(=O)CN1CCC(O)(CNc2ncnc(N3CC(F)(F)C[C@@H]3c3ccc(C(F)(F)F)cc3)c2F)CC1` [Example H6-14, (R)-2-(4-(((6-(4,4-difluoro-2-(4-(trifluoromethyl)phenyl)pyrrolidin-1-yl)-5-fluoropyrimidin-4-yl)amino)methyl)-4-hydroxypiperidin-1-yl)acetamide] it was 0.23 µM; in that of `NC(=O)CN1CC[C@H](CNc2ncnc(N3CCOC[C@@H]3c3ccc(C(F)(F)F)cc3)c2F)[C@@H](F)C1` (single isomer, unassigned) [Example H6-10-2, 2-((3R*,4R*)-3-fluoro-4-(((5-fluoro-6-((S)-3-(4-(trifluoromethyl)phenyl)morpholino)pyrimidin-4-yl)amino)methyl)piperidin-1-yl)acetamide], 0.013 µM.
On the same count and under the same terms, in the case of `NC(=O)CN1CCC(CNc2ncnc(N3C[C@H](F)C[C@@H]3c3ccc(C(F)(F)F)cc3)c2F)CC1` (racemic) [Example H6-27, rac-2-(4-(((5-fluoro-6-((2R,4R)-4-fluoro-2-(4-(trifluoromethyl)phenyl)pyrrolidin-1-yl)pyrimidin-4-yl)amino)methyl)piperidin-1-yl)acetamide] it was 0.21 µM; in that of `NC(=O)CN1CC[C@H](CNc2ncnc(N3CCOC[C@@H]3c3ccc(C(F)(F)F)cn3)c2F)[C@H](F)C1` (single isomer, unassigned) [Example H6-12-2, 2-((3R*,4S*)-3-fluoro-4-(((5-fluoro-6-((S)-3-(5-(trifluoromethyl)pyridin-2-yl)morpholino)pyrimidin-4-yl)amino)methyl)piperidin-1-yl)acetamide], 0.91 µM; in that of `NC(=O)CN1CC[C@H](CNc2ncnc(N3CC(F)(F)C[C@@H]3c3ccc(C(F)(F)F)cn3)c2F)[C@@H](O)C1` (mixture of isomers) [Example H6-20, 2-((3RS,4RS)-4-(((6-((R)-4,4-difluoro-2-(5-(trifluoromethyl)pyridin-2-yl)pyrrolidin-1-yl)-5-fluoropyrimidin-4-yl)amino)methyl)-3-hydroxypiperidin-1-yl)acetamide], 0.488 µM.
Still for that read-out and setting: in the case of `NC(=O)CN1CC[C@H](CNc2ncnc(N3CCOC[C@@H]3c3ccc(C(F)(F)F)cn3)c2F)[C@@H](F)C1` (single isomer, unassigned) [Example H6-13-1, 2-((3R*,4R*)-3-fluoro-4-(((5-fluoro-6-((S)-3-(5-(trifluoromethyl)pyridin-2-yl)morpholino)pyrimidin-4-yl)amino)methyl)piperidin-1-yl)acetamide] it was 0.16 µM; in that of `NC(=O)CN1CCC(CNc2ncnc(N3CCCC3c3ccc(C(F)(F)F)cc3O)c2F)CC1` (stereo not shown) [Example H6-26, 2-(4-(((5-fluoro-6-(2-(2-hydroxy-4-(trifluoromethyl)phenyl)pyrrolidin-1-yl)pyrimidin-4-yl)amino)methyl)piperidin-1-yl)acetamide], 0.44 µM.
In the case of `NC(=O)CN1CC[C@H](CNc2ncnc(N3CCOC[C@@H]3c3ccc(C(F)(F)F)cc3)c2F)[C@@H](O)C1` (single isomer, unassigned) [Example H6-7-1, 2-((3R*,4R*)-4-(((5-fluoro-6-((S)-3-(4-(trifluoromethyl)phenyl)morpholino)pyrimidin-4-yl)amino)methyl)-3-hydroxypiperidin-1-yl)acetamide], the IC50 under setting [1] came out at 0.02 µM.
In the case of `C[C@@H]1COC[C@H](c2ccc(C(F)(F)F)cc2)N1c1ncnc(NC[C@@H]2CCN(CC(N)=O)C[C@H]2O)c1F` (single isomer, unassigned) [Example H6-22-1], the IC50 under setting [1] amounted to 0.044 µM.
The same measure, in the same setting: in the case of `NC(=O)CN1CCC(F)(CNc2ncnc(N3CCOC[C@@H]3c3ccc(C(F)(F)F)cc3)c2F)CC1` [Example H6-4, (S)-2-(4-fluoro-4-(((5-fluoro-6-(3-(4-(trifluoromethyl)phenyl)morpholino)pyrimidin-4-yl)amino)methyl)piperidin-1-yl)acetamide] it was 0.056 µM.
Take `NC(=O)CC1CCC(CNc2ncnc(N3CCOC[C@@H]3c3ccc(OC(F)(F)F)cc3)c2F)CC1` (stereo partly shown) [Example 245, reference compound]: the IC50 under setting [2] was < 0.5 µM.
The same measure, in the same setting: in the case of `NC(=O)CC1CCC(CNc2ncnc(N3CCOC[C@@H]3c3ccc(C(F)(F)F)cc3)c2F)CC1` (stereo partly shown) [Example 206, reference compound] it was < 1 µM.
With `NC(=O)CN1CC[C@H](CNc2ncnc(N3CC(F)(F)C[C@@H]3c3ccc(C(F)(F)F)cc3)c2F)[C@@H](O)C1` (mixture of isomers) [Example H6-17, 2-((3RS,4RS)-4-(((6-((R)-4,4-difluoro-2-(4-(trifluoromethyl)phenyl)pyrrolidin-1-yl)-5-fluoropyrimidin-4-yl)amino)methyl)-3-hydroxypiperidin-1-yl)acetamide], under setting [1], the IC50 turned out to be 0.01 µM.

Source of the values: patent US11447479B2, “Compounds active towards nuclear receptors” (NUEVOLUTION A/S, priority 2019, dated 2022).
